Earlier results in patent publication US9474689B2, “Delamination resistant pharmaceutical glass containers containing active pharmaceutical ingredients” (Corning Incorporated, priority 2011, dated 2016).

What was measured:
[1] = system: soluble and transmembrane forms of TNFα
[2] = biological target: T1, TNFβ (lymphotoxin-α) (Homo sapiens, UniProt P01374)
T1 sequence (P01374 35-205): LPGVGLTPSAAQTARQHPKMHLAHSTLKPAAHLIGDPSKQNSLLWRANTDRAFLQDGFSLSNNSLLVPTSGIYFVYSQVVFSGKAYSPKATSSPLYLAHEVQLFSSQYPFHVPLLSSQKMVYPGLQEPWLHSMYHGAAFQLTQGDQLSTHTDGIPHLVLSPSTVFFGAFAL

[3] = system: P. aeruginosa; details: against P. aeruginosa
[4] = system: Enterobacteriaceae; details: in vitro

Sequence of soluble and transmembrane forms of TNFα (P01375 77-233 limits assumed): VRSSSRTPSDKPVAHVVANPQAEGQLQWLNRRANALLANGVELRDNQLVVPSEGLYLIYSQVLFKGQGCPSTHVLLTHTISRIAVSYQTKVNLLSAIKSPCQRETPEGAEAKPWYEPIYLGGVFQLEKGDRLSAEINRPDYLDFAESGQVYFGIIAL

## Infliximab: chimeric IgG1κ monoclonal antibody specific for human tumor necrosis factor-alpha
[1]
  binding affinity to TNFα: high affinity
[2]
  neutralization of TNFβ: does not neutralize

## C[C@@H](O)[C@H]1C(=O)N2C(C(=O)O)=C(S[C@@H]3CN[C@H](CNS(N)(=O)=O)C3)[C@H](C)[C@H]12 [Doripenem, doripenem]
other
  protein binding: low protein binding
[3]
  post-antibiotic effects in vitro: about two hours
[4]
  activity against Enterobacteriaceae: excellent activity
